Results on 17 compounds are retold here after ChEMBL document CHEMBL3259764, “Pim kinase inhibitory and antiproliferative activity of a novel series of meridianin C derivatives” (Bioorg Med Chem Lett, 2014).

Data set [1] addresses Serine/threonine-protein kinase pim-3 (Homo sapiens, UniProt Q86V86). The experiment in a line: Inhibition of PIM3 kinase (unknown origin) using 5-FAM-labeled BAD peptide as substrate after 90 mins by fluorescence polarization assay.
Data set [2] has as its target Serine/threonine-protein kinase pim-2 (Homo sapiens, UniProt Q9P1W9). The experiment in a line: Inhibition of PIM2 kinase (unknown origin) using 5-FAM-labeled BAD peptide as substrate after 90 mins by fluorescence polarization assay. (In general: Fluorescence polarisation rises when a labelled molecule tumbles more slowly, as on binding a larger partner.)
Data set [3] concerns the target Serine/threonine-protein kinase pim-1 (Homo sapiens, UniProt P11309). The experiment in a line: Inhibition of PIM1 kinase (unknown origin) using 5-FAM-labeled BAD peptide as substrate after 90 mins by fluorescence polarization assay.
The target of data set [4] is CDK2/Cyclin A2 (Homo sapiens) (UniProt P24941+P20248). Briefly: Inhibition of CDK2/cyclinA kinase (unknown origin) at 10 uM. It counts as protein-complex assay.
The next data set concerns K562. The experiment in a line: Antiproliferative activity against human K562 cells assessed as cell viability after 24 hrs by MTS assay. It counts as functional, cell-based. The following applies: K562, 24 h. For orientation: Tetrazolium dyes change colour on reduction, which living cells bring about.
Data set [5] is described as follows: Antiproliferative activity against human MV411 cells assessed as cell viability after 24 hrs by MTS assay. It counts as functional, cell-based. The following applies: MV4-11, 24 h.
Data set [6] is described as follows: Antiproliferative activity against human Jurkat E6-1 cells assessed as cell viability after 24 hrs by MTS assay. It counts as functional, cell-based.
Another data set has as its system Caco-2. The experiment in a line: Permeability across human Caco2 cells. It counts as ADME, cell-based. A general note: Passage across Caco-2 layers is used to estimate intestinal permeability.

Structures are written as SMILES.

Chain of Serine/threonine-protein kinase pim-2 (Q9P1W9 whole entry): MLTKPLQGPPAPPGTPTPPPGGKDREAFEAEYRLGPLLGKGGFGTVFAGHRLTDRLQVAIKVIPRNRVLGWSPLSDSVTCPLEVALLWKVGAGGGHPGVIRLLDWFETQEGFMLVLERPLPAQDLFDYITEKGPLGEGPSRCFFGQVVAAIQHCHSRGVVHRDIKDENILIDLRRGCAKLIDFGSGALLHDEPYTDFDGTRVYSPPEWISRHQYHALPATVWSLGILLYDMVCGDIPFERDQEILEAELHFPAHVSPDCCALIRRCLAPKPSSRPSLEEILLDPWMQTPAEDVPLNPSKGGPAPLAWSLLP
Chain of Serine/threonine-protein kinase pim-1 (P11309 whole entry): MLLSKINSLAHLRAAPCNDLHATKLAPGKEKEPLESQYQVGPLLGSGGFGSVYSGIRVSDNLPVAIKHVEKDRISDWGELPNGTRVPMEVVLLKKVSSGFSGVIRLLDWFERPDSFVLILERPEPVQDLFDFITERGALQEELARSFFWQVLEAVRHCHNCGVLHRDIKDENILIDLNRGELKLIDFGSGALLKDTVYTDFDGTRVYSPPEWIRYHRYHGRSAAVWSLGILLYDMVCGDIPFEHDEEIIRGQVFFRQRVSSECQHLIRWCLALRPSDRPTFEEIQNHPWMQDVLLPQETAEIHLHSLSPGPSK

As to `CCN(CC)CCNc1cncc(-c2ccc3[nH]cc(-c4ccnc(N)n4)c3c2)n1`, the IC50 (as a rule, the midpoint of a concentration-inhibition curve) in data set [1] worked out at 0.0099 µM; in data set [2], 0.31 µM; in data set [3] it was 0.0028 µM.
For the compound `Nc1nccc(-c2c[nH]c3ccccc23)n1`, the inhibition – broadly, how much of the control response was suppressed – in data set [4] came out at 54%.
In the case of `CC(=O)c1c[nH]c2ccc(-c3cncc(NCCN(C)C)n3)cc12`, 0.27 µM corresponded to half-maximal inhibition in data set [3] (IC50).
Consider `CCN(CC)CCCOc1cncc(-c2ccc3[nH]cc(-c4ccnc(N)n4)c3c2)n1`, for which the EC50 (commonly the concentration needed to bring the measured effect to its halfway point) stood at 13.7 µM in the data set on K562, 1.5 µM in data set [5] and 10.9 µM in data set [6]. For the same compound, the IC50 is 0.0557 µM in data set [1], 0.66 µM in data set [2] and 0.0345 µM in data set [3].
On to `CN(C)CCN(C)c1cncc(-c2ccc3[nH]cc(-c4ccnc(N)n4)c3c2)n1`, for which the IC50 is 0.0078 µM in data set [1], 0.18 µM in data set [2] and 0.008 µM in data set [3].
For `CN(C)/C=C/C(=O)c1c[nH]c2ccc(-c3cncc(OCCN(C)C)n3)cc12`, in data set [3], inhibition was half-maximal at 1.13 µM (IC50).
Regarding `CCN(CC)CCOc1cncc(-c2ccc3[nH]cc(-c4ccnc(N)n4)c3c2)n1`, the concentration giving a half-maximal response (EC50) in the data set on K562 came out at 17.9 µM; in data set [5] it was 3.3 µM; in data set [6] it was 14.4 µM. In addition, the IC50 in data set [1] was 0.03 µM; in data set [2], 0.59 µM; in data set [3], 0.0258 µM.
`CCN(CC)CCCNc1cncc(-c2ccc3[nH]cc(-c4ccnc(N)n4)c3c2)n1`: the IC50 in data set [1] amounted to 0.0302 µM; in data set [2] it was 0.92 µM; in data set [3] it was 0.0172 µM.
`CN(C)CCOc1cncc(-c2ccc3[nH]cc(C(=O)c4ccccc4)c3c2)n1` displayed an IC50 in data set [3] of 0.4 µM.
For the compound `CN(C)CCCNc1cncc(-c2ccc3[nH]cc(-c4ccnc(N)n4)c3c2)n1`, the IC50 in data set [1] worked out at 0.0313 µM; in data set [2], 0.63 µM; in data set [3], 0.0183 µM.
`CN(C)CCOc1cncc(-c2ccc3[nH]cc(-c4ccnc(N)n4)c3c2)n1`: the half-maximal effective concentration (EC50) in the data set on K562 was found to be 18.5 µM; in data set [5], 2.9 µM; in data set [6], 13.5 µM. For the same compound, the IC50 is 0.0217 µM in data set [1], 0.38 µM in data set [2] and 0.0204 µM in data set [3].
In turn, `Nc1nccc(-c2c[nH]c3ccc(Br)cc23)n1` [MERIDIANIN C] showed an IC50 in data set [3] of 1.04 µM.
Regarding `CN(C)CCNc1cncc(-c2ccc3[nH]cc(-c4ccnc(N)n4)c3c2)n1`, the IC50 in data set [1] came to 0.0065 µM; in data set [2], 0.11 µM; in data set [3] it was 0.0034 µM. Moreover, in the data set with Caco-2, the permeability entry is on record as “permeable”.
Take `CCOc1cncc(-c2ccc3[nH]cc(-c4ccnc(N)n4)c3c2)n1`: the EC50 worked out at 20.8 µM in the data set with K562, 0.5 µM in data set [5] and 15 µM in data set [6]. Also, the IC50 in data set [1] stood at 0.0509 µM; in data set [2] it was 0.74 µM; in data set [3], 0.0451 µM. The permeability entry with Caco-2 was “permeable”.
As to `CN(C)CCNc1cncc(-c2ccc3[nH]cc(C(=O)C4CC4)c3c2)n1`, in data set [3], it took 0.27 µM to reach half-maximal inhibition (IC50).
On to `CN(C)CCCOc1cncc(-c2ccc3[nH]cc(-c4ccnc(N)n4)c3c2)n1`, for which the half-maximal inhibitory concentration (IC50) worked out at 0.0205 µM in data set [1], 0.54 µM in data set [2] and 0.0187 µM in data set [3].
For the compound `CN(C)/C=C/C(=O)c1c[nH]c2ccc(-c3cncc(NCCN(C)C)n3)cc12`, it took 0.37 µM to reach half-maximal inhibition in data set [3] (IC50).
